Test results taken from the supplement of paper PMC10307832.

Tests used:
Test in all cases: relative viability (nuclei count vs DMSO), 5 days (fraction); higher = more cells survive
AZ628 + Alpelisib = compound: CC1=C(C=C(C=C1)NC(=O)C2=CC(=CC=C2)C(C)(C)C#N)NC3=CC4=C(C=C3)N=CN(C4=O)C [AZ628] + Cc1nc(NC(=O)N2CCC[C@H]2C(N)=O)sc1-c1ccnc(C(C)(C)C(F)(F)F)c1 [Alpelisib] (partner 2 µM)
Summary of the method: (§1)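 Medians of duplicate plates are given as relative viability. That measure is the nuclei count in treated wells divided by the count in vehicle wells. Counts were taken on 4× images of lung cancer cell lines in 1536-well plates, 5 days after pin-tool dosing the day after seeding with one drug alone or a fixed anchor-drug dose plus five library-drug doses (not always all listed) in √10 steps.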

AZ628 + Navitoclax = compound: CC1=C(C=C(C=C1)NC(=O)C2=CC(=CC=C2)C(C)(C)C#N)NC3=CC4=C(C=C3)N=CN(C4=O)C [AZ628] + CC1(C)CCC(c2ccc(Cl)cc2)=C(CN2CCN(c3ccc(C(=O)NS(=O)(=O)c4ccc(N[C@H](CCN5CCOCC5)CSc5ccccc5)c(S(=O)(=O)C(F)(F)F)c4)cc3)CC2)C1 [Navitoclax] (partner 0.5 µM)
Summary of the method: as §1

AZ628 + Foretinib = compound: CC1=C(C=C(C=C1)NC(=O)C2=CC(=CC=C2)C(C)(C)C#N)NC3=CC4=C(C=C3)N=CN(C4=O)C [AZ628] + COc1cc2c(Oc3ccc(NC(=O)C4(C(=O)Nc5ccc(F)cc5)CC4)cc3F)ccnc2cc1OCCCN1CCOCC1 [Foretinib] (partner 0.25 µM)
Summary of the method: as §1

[1] = compound: C[As](C)SC[C@H](NC(=O)CC[C@H](N)C(=O)O)C(=O)NCC(=O)O [Darinaparsin] + CC(=O)Nc1cccc(-n2c(=O)n(C3CC3)c(=O)c3c(Nc4ccc(I)cc4F)n(C)c(=O)c(C)c32)c1 [Trametinib] (partner 0.02 µM)
Summary of the method: as §1

| Cell Line | relative viability (AZ628 + Alpelisib; first compound 0.08 µM) | relative viability (AZ628 + Alpelisib; first compound 0.253 µM) | relative viability (AZ628 + Alpelisib; first compound 0.8 µM) | relative viability (AZ628 + Alpelisib; first compound 2.53 µM) | relative viability (AZ628 + Alpelisib; first compound 8 µM) | relative viability (AZ628 + Navitoclax; first compound 0.08 µM) | relative viability (AZ628 + Navitoclax; first compound 0.253 µM) | relative viability (AZ628 + Navitoclax; first compound 0.8 µM) | relative viability (AZ628 + Navitoclax; first compound 2.53 µM) | relative viability (AZ628 + Navitoclax; first compound 8 µM) | relative viability (AZ628 + Foretinib; first compound 0.08 µM) | relative viability (AZ628 + Foretinib; first compound 0.253 µM) | relative viability (AZ628 + Foretinib; first compound 0.8 µM) | relative viability (AZ628 + Foretinib; first compound 2.53 µM) | relative viability (AZ628 + Foretinib; first compound 8 µM) | relative viability ([1]; first compound 0.08 µM) | relative viability ([1]; first compound 0.8 µM) | relative viability ([1]; first compound 2.53 µM) | relative viability ([1]; first compound 8 µM) |
| --- | --- | --- | --- | --- | --- | --- | --- | --- | --- | --- | --- | --- | --- | --- | --- | --- | --- | --- | --- |
| NCI-H322M | 0.925 | 0.719 | 0.824 | 0.747 | 0.655 | 1.34 | 1.14 | 1.19 | 1.24 | 0.914 | 1.05 | 0.985 | 0.952 | 1.02 | 0.829 | 0.525 | 0.505 | 0.495 | 0.511 |
| NCI-H2126 | 0.819 | 0.734 | 0.83 | 0.783 | 0.653 | 0.894 | 0.886 | 0.866 | 0.794 | 0.624 | 1.27 | 1.18 | 1.22 | 0.922 | 0.94 | 0.629 | 0.563 | 0.575 | 0.542 |
| NCI-H2405 | 0.313 | 0.447 | 0.444 | 0.352 | 0.406 | 0.49 | 0.64 | 0.53 | 0.415 | 0.575 | 0.637 | 0.857 | 0.673 | 0.757 | 0.539 | 0.702 | 0.562 | 0.55 | 0.668 |
| NCI-H1944 | 0.855 | 0.718 | 0.673 | 0.68 | 0.586 | 1.14 | 1.04 | 1 | 0.949 | 0.921 | 0.943 | 0.842 | 0.69 | 0.757 | 0.604 | 0.404 | 0.401 | 0.371 | 0.408 |
| NCI-H520 | 0.908 | 0.826 | 0.733 | 0.819 | 0.52 | 1.18 | 0.842 | 1.05 | 0.968 | 0.772 | 0.834 | 0.7 | 0.76 | 0.802 | 0.631 | 0.883 | 0.718 | 0.669 | 0.697 |
| NCI-H2228 | 0.697 | 0.984 | 0.656 | 0.888 | 0.351 | 0.829 | 1.13 | 1.03 | 1.01 | 0.839 | 0.72 | 0.806 | 0.811 | 0.722 | 0.532 | 0.563 | 0.382 | 0.462 | 0.354 |
| EKVX | 0.909 | 0.903 | 0.949 | 0.983 | 0.866 | 0.982 | 0.925 | 1.11 | 0.966 | 0.589 | 0.724 | 0.609 | 0.721 | 0.847 | 0.564 | 0.339 | 0.33 | 0.344 | 0.333 |
